The values below come from patent publication US12187755B2, “Minimal saponin analogues, synthesis and use thereof” (MEMORIAL SLOAN-KETTERING CANCER CENTER, priority 2014, dated 2025).

Assay [1] can be described thus: in vivo fluorescence imaging with fluorescein-labeled saponin and OVA-A647. The note with it: 24 h post-injection. Also noted: species or system mouse. The protocol: To address this problem, in vivo fluorescence imaging experiments with fluorescein-labeled active adjuvant 3 (SQS-0-0-5-12) and Alexa-647-conjugated OVA (OVA-A647) were conducted.
Whole-body imaging was performed at 24 h post-injection with a Maestro Imaging System. At 24 h post-injection, mice were sacrificed and the left and right lymph nodes were dissected and imaged separately.

For assay [2] the following is noted: in vivo; cited from earlier work.

Regarding `C[C@H]1O[C@@H](OC2C(O)C(NC(=O)CCCCCN)[C@H](CO)O[C@H]2OC(=O)C23CCC(C)(C)CC2C2=CCC4C5(C)CC[C@H](OC6OC(C(=O)O)[C@@H](O)[C@H](OC7OC[C@@H](O)[C@H](O)[C@@H]7O)[C@@H]6O[C@@H]6OC(CO)C(O)[C@@H](O)[C@@H]6O)[C@](C)(C=O)[C@@H]5CC[C@]4(C)[C@]2(C)C[C@@H]3O)C(O)C(O)C1O[C@@H]1OCC(O)C(O)C1O` (stereo partly drawn) [compound 2], in assay [1], the “OVA-A647 at the site of injection when co-injected with the adjuvant” value is “observed at the site of injection”. In assay [1] (dissected lymph nodes), the “OVA-A647 localization to the nearest draining lymph nodes when co-injected with the adjuvant” value is recorded as “increased accumulation of OVA-A647 with 3 but not 2”. The adjuvant activity result in assay [2] is “inactive”.
